From PubChem BioAssay (NCI) come the findings set out here.

Among the test systems are BT-549 breast; COLO 205 colon; DU-145 prostate; MALME-3M melanoma; MDA-MB-435; OVCAR-5 ovarian; SN12C renal; SR leukemia; UACC-62 melanoma; HOP-92 NSCLC.
What all share (assay): growth of human tumour cells (NCI), 48 h

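Where inhibition never reached the appropriate level, the endpoint shown equals the highest concentration tested. Otherwise, values were interpolated linearly from a five-concentration, 48-hour dose response in 96-well plates. Definition used: TGI = concentration required for complete inhibition of growth.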

Consider `Nn1c(Nc2ccc(S(N)(=O)=O)cc2)nnc(/C=C/c2c(O)ccc3ccccc23)c1=O`, for which the TGI with BT-549 breast was 40.4 µM; in the assay with COLO 205 colon it was 88.1 µM; in the assay with DU-145 prostate it was 91.2 µM; in the assay on MALME-3M melanoma, 49.7 µM; in the assay on MDA-MB-435, 50.1 µM; in the assay with OVCAR-5 ovarian it was 56.1 µM. Besides, the TGI with SN12C renal worked out at 27.3 µM; in the assay with SR leukemia, 25.1 µM; in the assay on UACC-62 melanoma, 49.9 µM.
Regarding `CSc1ncc2c(n1)-c1ccccc1OC2N1CCOCC1` (centres undefined), the TGI in the assay with BT-549 breast, in the assay on COLO 205 colon, in the assay with DU-145 prostate, in the assay with HOP-92 NSCLC, in the assay with MDA-MB-435 and with OVCAR-5 ovarian was greater than 100 µM each time. Moreover, the TGI in the assay on SN12C renal, in the assay with SR leukemia and in the assay with UACC-62 melanoma was greater than 100 µM throughout.
On to `Cc1nn(C(=O)c2ccccc2O)c2c1C(c1ccc(O)cc1O)SC(N)=N2` (centres undefined), for which the TGI with BT-549 breast is 8.39 µM; with COLO 205 colon, greater than 10 µM; in the assay on DU-145 prostate it was greater than 10 µM; in the assay on HOP-92 NSCLC, greater than 10 µM; with MALME-3M melanoma it was greater than 10 µM; in the assay on MDA-MB-435, greater than 10 µM. Besides, the TGI was 3.91 µM with OVCAR-5 ovarian, greater than 10 µM in the assay on SN12C renal, greater than 10 µM in the assay on SR leukemia and 5.71 µM in the assay on UACC-62 melanoma.
Take `C/C=C1/CN2CCC34c5ccccc5N(C)C23C2CC1C4(C(=O)OC)C(OC(C)=O)O2` (centres undefined): the TGI with BT-549 breast, in the assay with COLO 205 colon, in the assay with DU-145 prostate, with HOP-92 NSCLC, in the assay with MDA-MB-435 and in the assay with OVCAR-5 ovarian was greater than 100 µM throughout. Further, the TGI with SN12C renal, with SR leukemia and with UACC-62 melanoma was greater than 100 µM throughout.
Take `Cc1c(Cc2ccccc2)n(C(C)OCCN(OC(=O)Oc2ccccc2)C(=O)Oc2ccccc2)c(=O)[nH]c1=O` (centres undefined): the TGI in the assay on BT-549 breast was determined as 33 µM; in the assay with COLO 205 colon, 34.9 µM; in the assay on DU-145 prostate it was 85.1 µM; in the assay with HOP-92 NSCLC it was 29.7 µM; with MDA-MB-435, 56.5 µM; in the assay with OVCAR-5 ovarian, 31.6 µM. Besides, the TGI in the assay with SN12C renal was 40.5 µM; with SR leukemia it was greater than 100 µM; with UACC-62 melanoma, 30.5 µM.
Take `Cc1ncc([N+](=O)[O-])n1CC[N+](C)([O-])CCCCn1ccnc1[N+](=O)[O-]` (centres undefined): the TGI in the assay on BT-549 breast, with COLO 205 colon, in the assay on DU-145 prostate, with MALME-3M melanoma, in the assay with MDA-MB-435 and in the assay with OVCAR-5 ovarian was greater than 100 µM in each case. The TGI in the assay with SN12C renal, in the assay with SR leukemia and in the assay on UACC-62 melanoma was greater than 100 µM throughout.
Regarding `CN(C)CN1CSC(=S)N(CN(C)C)C1`, the TGI in the assay on BT-549 breast, in the assay on DU-145 prostate, in the assay on HOP-92 NSCLC, in the assay on MALME-3M melanoma, with MDA-MB-435 and in the assay on OVCAR-5 ovarian was greater than 100 µM in each case. The TGI in the assay with SN12C renal is greater than 100 µM; in the assay with SR leukemia, 55.2 µM; with UACC-62 melanoma it was greater than 100 µM.
Consider `CC(C)(C)NC1=NC(C(F)(F)F)(C(F)(F)F)NC(=O)N1`, for which the TGI with BT-549 breast, in the assay with DU-145 prostate, in the assay with HOP-92 NSCLC, in the assay with MALME-3M melanoma, with MDA-MB-435 and in the assay on OVCAR-5 ovarian was greater than 100 µM in each case. Further, the TGI in the assay with SN12C renal, in the assay with SR leukemia and in the assay on UACC-62 melanoma was greater than 100 µM throughout.
Take `O=C(CN1CCCC1=O)CS(=O)(=O)c1ccccc1`: the TGI with BT-549 breast, in the assay on COLO 205 colon, in the assay with DU-145 prostate, with MALME-3M melanoma, in the assay with MDA-MB-435 and in the assay with OVCAR-5 ovarian was greater than 100 µM in each case. Besides, the TGI in the assay with SR leukemia and in the assay with UACC-62 melanoma was greater than 100 µM in each case.
As for `O=C1c2cc(I)ccc2N2CCN=C2N1Cc1ccccc1`, the TGI is greater than 100 µM in the assay with BT-549 breast; greater than 100 µM in the assay with COLO 205 colon; greater than 100 µM in the assay with DU-145 prostate; 80.1 µM in the assay on HOP-92 NSCLC; greater than 100 µM in the assay with MALME-3M melanoma; greater than 100 µM in the assay with MDA-MB-435. Also, the TGI with OVCAR-5 ovarian, with SN12C renal and in the assay with SR leukemia was greater than 100 µM throughout.
In the case of `O=C1/C(=C/c2ccc(Cl)cc2)Oc2cc(O)ccc21`, the TGI in the assay on BT-549 breast was greater than 100 µM; in the assay on COLO 205 colon it was greater than 100 µM; in the assay on DU-145 prostate, greater than 100 µM; with MDA-MB-435, greater than 100 µM; in the assay on SN12C renal, greater than 100 µM; in the assay with SR leukemia it was 47.1 µM. In the assay with UACC-62 melanoma, this compound showed a TGI greater than 100 µM.
With `COc1cc(C2S/C(=C/c3ccccc3)C(=O)N2Cc2ccccc2)cc(OC)c1OC` (centres undefined), the TGI in the assay with BT-549 breast, with COLO 205 colon, with DU-145 prostate, in the assay with HOP-92 NSCLC, in the assay with MDA-MB-435 and in the assay on OVCAR-5 ovarian was greater than 100 µM in each case. The figures for the TGI with SN12C renal, in the assay with SR leukemia and with UACC-62 melanoma were greater than 100 µM, 57.2 µM and greater than 100 µM, respectively.
As to `CN1CCN(C(=O)CCC(=O)Nc2cc3c(c4ccccc24)-c2ccc4ccccc4c2C3)CC1`, the TGI was 2.84 µM with BT-549 breast; 3 µM in the assay on COLO 205 colon; 3.52 µM with DU-145 prostate; 3.36 µM with HOP-92 NSCLC; 3.71 µM with MALME-3M melanoma; 3.02 µM in the assay with MDA-MB-435. Also, the TGI in the assay on OVCAR-5 ovarian came out at 3.15 µM; in the assay with SN12C renal, 3.64 µM; in the assay on UACC-62 melanoma it was 3.32 µM.
For the compound `Cc1cc2nc3c(C#N)c4c(c(Nc5ccc(F)cc5)n3c2cc1C)CCC4`, the TGI with BT-549 breast, in the assay with COLO 205 colon, in the assay with DU-145 prostate, in the assay on MALME-3M melanoma, with MDA-MB-435 and in the assay with OVCAR-5 ovarian was greater than 100 µM each time. Further, the TGI with SN12C renal, with SR leukemia and in the assay on UACC-62 melanoma was greater than 100 µM each time.
